US8420100B2, “Tumor suppressor activating polypeptides and uses thereof” (Department of Biotechnology, priority 2006, dated 2013)
“Also recorded” adds a separate entry of the source.

Key:
[1] = system: tumor vasculature of B16F1-induced tumors; assay: Hematoxylin and eosin histopathology of B16F1-induced tumors; assay type: in vivo, mouse; conditions: tumors excised from treated mice
Text: (§1) Histopathological changes in the subcutaneous tumors: To analyze the tumor vasculature of TAT PTD, SM treated and P44 treated mice, the tumor sections were stained with HE. […] In SM treated tumors, due to compressed vessels, the shape of RBCs were also distorted (FIG. 7A, lower right panel, arrow marked). […] The presence of hypoxic cells is a hallmark of cancer (Brown, J. M., and Wilson, W. R. (2004) Nat. Rev. Cancer 4, 437-447; Minchinton, A. I., and Tannock, I. F. (2006) Nat. Rev. Cancer 6, 583-592). Cellular responses to hypoxia are triggered by the hypoxia inducible factor-1 alpha (HIF-1α) that is known to restore tissue homeostasis in hypoxic conditions (Semenza, G. L. (2000) Genes Dev. 14, 1983-1991). To determine the status of HIF-1α expression, immunohistochemical analysis was performed on tumor sections obtained from SM and P44 treated mice by using antibody against HIF-1 α. […] All these observations implicate the significance of P44 peptide in restoring tissue architecture in tumor cells and thus potentiates its role as a tumor regressor.
(§2) FIG. 7. Histopathological changes in B16F1-induced tumors. A, Hematoxylin and eosin staining of tumor sections excised from mice treated with either P44 (upper panel) or SM (lower panel) peptide. […] The images have been recorded at 20× and 40×. B, Immunohistochemistry of paraffin embedded tumor sections from P44 treated as well as, SM treated mice. After antigen unmasking, sections were stained with HIF-1α antibody (middle panel) and detected using Cy-3 conjugated mouse immunoglobulin. Sections were counterstained with DAP1 for nuclear localization (left panel). Right panel corresponds to the merged image.

[2] = system: B16F1 mouse melanoma cells; assay: B16F1 melanoma tumor regression in nude mice; assay type: in vivo; conditions: for anti-tumorigenic activity (tumor regression): xenograft tumor nude mice model
Procedure: P44 peptide: A potent tumor regressor: To test whether the differences in SMAR1 derived peptide-induced activation of p53 translated to differences in drug sensitivity in vivo, B16F1 mouse melanoma cells were subcutaneously grafted into athymic nude mice, and tumor growth together with therapeutic sensitivity was monitored. Once the tumor nodule was established into the mouse, P44 peptide was injected in the tumor localized areas at a physiological dose of 200 μg/mouse thrice a week. The treatment was continued for 4 weeks. In a parallel experiment, either TAT PTD or TAT-SMAR1 RS mutant peptide, SM (FIGS. 6A and B, respectively) was injected in tumor bearing mice to be used as control.
FIG. 6D-F corresponds to the magnified tumor images of FIG. 6A-C, respectively. […] Thus, P44 peptide mimics the function of full-length SMAR1 in drastically reducing the tumor growth.
FIG. 6. Tumor regression by TAT-SMAR1 WT peptide. A, Nude mice were allowed to develop tumors by subcutaneously injecting B 16F1 mouse melanoma cells. Mice with size-matched tumors were then randomized into three treatment groups (five animals per group); TAT PTD alone (panel A), TAT-SMART RS mutant (SM) (panel B) and TAT-SMAR1 WT (P44) (panel C). Panels D, E and F correspond to the magnified images of panels A, B and C, respectively. Mice were treated with either of the peptides at a dose of 200 μg/mice/thrice a week for consecutive 4 weeks. The tumors were then weighed and plotted for each mouse in all the treatment groups (panel G).
Animal model for tumorgenesis: B16F1 mouse melanoma cells in the exponential growth phase were trypsinized (Invitrogen) and washed twice with PBS. Cell number and viability was assessed and cell cultures with viability >90% were used. Tumors were then established in nude mice by subcutaneous injection of 2×10^6 B16F1 cells. Five mice were used in each set of experiments. The mice were maintained under pathogen-free conditions. When the subcutaneous tumor was clearly visible, the TAT-SMAR1 WT (P44) peptide treatment was started. The P44 peptide was subcutaneously injected proximal to the tumor sites at a dose of 200 μg/mouse thrice a week. The treatment was administered for 4 weeks. For control treatment, TAT PTD alone and TAT SMAR1 RS mutant peptide (SM) were injected in the same manner as the P44 peptide.

HIF-1α = assay: Immunohistochemical staining of tumor sections for HIF-1α; assay type: in vivo, mouse; conditions: tumors excised from treated mice
Text: as §1, §2
Immunohistochemical staining of tumor sections: Tumor sections in paraffin-embedded blocks were transferred to poly-L-lysine coated glass slides and air-dried overnight at 37° C. They were dewaxed in xylene (three changes) and […] in graded series of decreasing ethanol concentrations. […] Thereafter, detected using cy-3 fluorescence labeled secondary antibody. […]

[3] = system: cell cycle regulatory genes; assay: Microarray gene expression upon P44 treatment; assay type: cell-based

Sequence: YGRKKRRQRRRTAWRRKQRGQSLAVKSFSRRTPAAAAYSASETM [SM, P44 mutant where serine residues from 347-350 were replaced by alanines]
- tumor vascular architecture (HE staining) [1]: leaky vascular architecture; also recorded: poorly organized vascular architecture and compressed blood vessels
- tumor weight after excision ([2]; nude mice, 200 μg/mouse thrice a week, 4 weeks): 1.2 to 2.5 g
- anti-tumorigenic activity (tumor regression) [2]: significantly reduced
- HIF-1α expression in tumor sections (HIF-1α): increased HIF-1 α expression

Sequence: YGRKKRRQRRRTAWRRKQRGQSLAVKSFSRRTPSSSSYSASETM [P44, 33 mer SMAR1 peptide (residues 324-357) conjugated with 11-mer TAT-PTD]
- inter-vessel distance compared to SM-treated tumors [1]: significantly less
- tumor vascular architecture (HE staining) [1]: intact vasculature
- expression of genes involved in regulating mitosis, MAPK signaling and cell cycle checkpoints [3]: significant decreased expression
- expression of proteins involved in ubiquitin-proteasome signaling [3]: reduced expression
- regression in tumor compared to TAT-injected or SM injected mice ([2]; nude mice, 200 μg/mouse thrice a week, 4 weeks, injected at tumor site): 5-7 fold
- anti-tumorigenic activity (tumor regression) [2]: strongly regressed tumors
- HIF-1α expression in tumor sections (HIF-1α): no detectable level of HIF-1α
